Source: ChEMBL document CHEMBL4739717, “Methods of treating cartilage disorders through inhibition of clk and dyrk” (2020)

Columns and labels:
[1] = Effect on Wnt signaling pathway in human SW480 cells harbouring TCF/LEF luciferase reporter gene and SP5-Luc reporter gene incubated for 36 to 48 hrs by luminescence assay; format: cell-based
[2] = Induction of chondrogenesis in human MSC assessed as incubated for 6 days by rhodamine B and Nile red staining based imaging analysis; format: functional; details: bmmsc
[3] = Induction of chondrogenesis in human MSC assessed as maximum activity at 30 nM incubated for 6 days by rhodamine B and Nile red staining based imaging analysis relative to control; format: functional; details: BMMSC, 144 h, time 6 day
[4] = target: Dual specificity tyrosine-phosphorylation-regulated kinase 1A (Homo sapiens, UniProt Q13627); test: Inhibition of recombinant DYRK1A (unknown origin) using Ser/Thr 18 peptide as substrate incubated for 1 hr in presence of ATP by FRET assay

Structure (SMILES)	EC50 [1]	EC50 [2]	Emax at 0.03 µM [3]	EC50 [4]
O=C(Nc1cncc(-c2cc3c(-c4cc5cnccc5[nH]4)n[nH]c3cn2)c1)C1CC1	1540 nM	30 nM	58.5%	4 nM
O=C(Nc1cncc(-c2ccc3[nH]nc(-c4cc5cnccc5[nH]4)c3c2)c1)C1CCC1	75 nM	10 nM	213%	2 nM
COc1cccc(-c2ccnc3[nH]c(-c4n[nH]c5ccc(-c6cccnc6)nc45)nc23)c1	1610 nM	100 nM	50.5%	36 nM
O=C(Nc1cncc(-c2cnc3[nH]nc(-c4cc5c(-c6ccccc6F)nccc5[nH]4)c3c2)c1)C1CC1	321 nM	30 nM	78.1%	20 nM
c1cncc(-c2cc3c(-c4nc5c(-c6cccnc6)cccc5[nH]4)n[nH]c3cn2)c1	92.4 nM	100 nM	93%	42 nM
CCC(=O)Nc1cncc(-c2ccc3[nH]nc(-c4nc5c(-c6ccsc6)cncc5[nH]4)c3c2)c1	2 nM	30 nM	203%	14 nM
c1cncc(-c2ccc3[nH]nc(-c4nc5c(-c6cccnc6)nccc5[nH]4)c3n2)c1	> 10000 nM	100 nM	70%	36 nM
CCCC(=O)Nc1cncc(-c2ccc3[nH]nc(-c4nc5c(-c6ccsc6)ccnc5[nH]4)c3c2)c1	7.7 nM	30 nM	72.6%	17 nM
FC1(F)CCN(Cc2cncc(-c3cc4c(-c5nc6c(N7CCCCC7)cncc6[nH]5)n[nH]c4cn3)c2)C1	116 nM	10 nM	100%	6 nM
O=C(Nc1cncc(-c2ccc3[nH]nc(-c4cc5c(-c6ccccc6F)nccc5[nH]4)c3c2)c1)C1CCCC1	418 nM	10 nM	70.8%	81 nM
O=C(Nc1cncc(-c2cc3c(-c4cc5c(-c6ccc(F)cc6)nccc5[nH]4)n[nH]c3cn2)c1)C1CC1	844 nM	30 nM	96.2%	74 nM
c1cncc(-c2ccc3[nH]nc(-c4cc5cnccc5[nH]4)c3c2)c1	40 nM	10 nM	342%	1 nM
CC(C)Nc1cncc(-c2cnc3[nH]nc(-c4nc5c(-c6cc(F)cc(NCCN(C)C)c6)nccc5[nH]4)c3c2)c1	154 nM	30 nM	82.9%	5 nM
CN(C)Cc1cncc(-c2ccc3[nH]nc(-c4cc5cnccc5[nH]4)c3n2)c1	1140 nM	30 nM	119%	13 nM
CC(C)(C)C(=O)Nc1cncc(-c2ccc3[nH]nc(-c4nc5c(-c6ccc(Cl)s6)cncc5[nH]4)c3n2)c1	551 nM	10 nM	84.7%	70 nM
CN(C)Cc1cncc(-c2ccc3[nH]nc(-c4cc5c(N6CCCCC6)nccc5[nH]4)c3c2)c1	4710 nM	10 nM	220%	33 nM
CCCCC(=O)Nc1cncc(-c2ccc3[nH]nc(-c4cc5c(N6CCCCC6)nccc5[nH]4)c3n2)c1	4050 nM	30 nM	54.7%	43 nM
CC(C)Nc1cncc(-c2ccc3[nH]nc(-c4nc5c(-c6cc(F)cc(NCCN(C)C)c6)nccc5[nH]4)c3c2)c1	202 nM	30 nM	85.1%	11 nM
FC1(F)CCN(Cc2cncc(-c3ccc4[nH]nc(-c5cc6c(-c7ccccn7)cccc6[nH]5)c4n3)c2)C1	432 nM	10 nM	81.9%	33 nM
c1cncc(-c2ccc3[nH]nc(-c4nc5c(-c6cccnc6)cncc5[nH]4)c3n2)c1	> 10000 nM	30 nM	83.8%	47 nM
CN(C)Cc1cncc(-c2cnc3[nH]nc(-c4nc5c(-c6cccc(F)c6)cncc5[nH]4)c3c2)c1	13 nM	30 nM	183%	5 nM
Cn1cc(-c2cnc3[nH]nc(-c4nc5c(-c6cccc(F)c6)nccc5[nH]4)c3c2)cn1	11.1 nM	30 nM	74.9%	39 nM
Nc1cncc(-c2ccc3[nH]nc(-c4nc5c(-c6ccccc6F)ccnc5[nH]4)c3c2)c1	2 nM	30 nM	113%	5 nM
CN1CCN(c2nccc3[nH]c(-c4n[nH]c5ccc(-c6cncc(N)c6)nc45)nc23)CC1	> 10000 nM	100 nM	135%	45 nM
Nc1cncc(-c2cnc3[nH]nc(-c4cc5c(-c6ccncc6)nccc5[nH]4)c3c2)c1	> 10000 nM	30 nM	53.5%	4 nM

Structure (SMILES)	EC50 [1]	EC50 [2]	Emax at 0.03 µM [3]	EC50 [4]
CN1CCN(c2nccc3[nH]c(-c4n[nH]c5cnc(-c6cncc(NC(=O)C(C)(C)C)c6)cc45)cc23)CC1	1880 nM	10 nM	88.2%	3 nM
CN1CCN(c2cncc3[nH]c(-c4n[nH]c5ccc(-c6cncc(N)c6)cc45)cc23)CC1	8250 nM	30 nM	50.9%	3 nM
CC(C)Nc1cncc(-c2ccc3[nH]nc(-c4nc5c(-c6ccoc6)cncc5[nH]4)c3n2)c1	597 nM	30 nM	75.3%	24 nM
CC(C)(C)CC(=O)Nc1cncc(-c2cc3c(-c4cc5c(-c6ccccc6F)nccc5[nH]4)n[nH]c3cn2)c1	1030 nM	30 nM	54.3%	50 nM
O=C(Nc1cnccc1NC(=O)C1CC1)c1n[nH]c2ccc(-c3cncc(CN4CCCCC4)c3)cc12	120 nM	30 nM	53.7%	38 nM
Cc1ccc(-c2nccc3[nH]c(-c4n[nH]c5cnc(-c6cncc(N)c6)cc45)nc23)s1	9.2 nM	10 nM	259%	4 nM
CS(=O)(=O)NCc1cc(F)cc(-c2cncc3[nH]c(-c4n[nH]c5ccc(-c6cncnc6)nc45)cc23)c1	1030 nM	10 nM	106%	76 nM
CCNCc1cncc(-c2cc3c(-c4nc5c(-c6ccsc6)nccc5[nH]4)n[nH]c3cn2)c1	59.3 nM	30 nM	67.7%	2 nM
Nc1cncc(-c2ccc3[nH]nc(-c4cc5c(N6CCCCC6)ccnc5[nH]4)c3c2)c1	604 nM	30 nM	130%	33 nM
CC(C)CC(=O)Nc1cncc(-c2ccc3[nH]nc(-c4cc5c(-c6ccncc6)cncc5[nH]4)c3c2)c1	875 nM	30 nM	70.2%	4 nM
CS(=O)(=O)NCc1cc(F)cc(-c2nccc3[nH]c(-c4n[nH]c5ccc(-c6cncnc6)cc45)nc23)c1	40.5 nM	30 nM	73.1%	96 nM
O=C(Cc1ccccc1)Nc1cncc(-c2ccc3[nH]nc(-c4nc5c(-c6ccoc6)cncc5[nH]4)c3c2)c1	33 nM	30 nM	102%	17 nM
CC(C)Nc1cncc(-c2ccc3[nH]nc(-c4nc5c(-c6ccoc6)nccc5[nH]4)c3n2)c1	297 nM	30 nM	76.2%	18 nM
CN(C)Cc1cncc(-c2ccc3[nH]nc(-c4nc5c(-c6cccc(F)c6)cccc5[nH]4)c3n2)c1	637 nM	30 nM	84.6%	65 nM
CCNCc1cncc(-c2cc3c(-c4cc5c(-c6ccccc6F)ccnc5[nH]4)n[nH]c3cn2)c1	> 10000 nM	30 nM	270%	70 nM
CC(C)Nc1cncc(-c2cnc3[nH]nc(-c4nc5c(-c6ccoc6)nccc5[nH]4)c3c2)c1	52.6 nM	30 nM	72%	19 nM
O=C(Nc1cncc(-c2ccc3[nH]nc(-c4nc5c(-c6ccncc6)ccnc5[nH]4)c3n2)c1)C1CCCCC1	999 nM	10 nM	68.6%	26 nM
Cc1cn(-c2nccc3[nH]c(-c4n[nH]c5ccc(-c6cncc(NC(=O)CC(C)C)c6)cc45)nc23)cn1	10.4 nM	30 nM	73.7%	9 nM
Fc1ccc(-c2nccc3[nH]c(-c4n[nH]c5ccc(-c6cncc(CN7CCCC7)c6)cc45)cc23)cc1	3620 nM	30 nM	98.5%	60 nM
O=C(Nc1cncc(-c2ccc3[nH]nc(-c4nc5c(N6CCCCC6)cncc5[nH]4)c3c2)c1)C1CCC1	39 nM	30 nM	106%	4 nM
Fc1cccc(-c2cncc3[nH]c(-c4n[nH]c5ncc(-c6cncc(CN7CCCCC7)c6)cc45)cc23)c1	3120 nM	10 nM	108%	74 nM
CCC(=O)Nc1cncc(-c2cc3c(-c4cc5c(-c6cccc(F)c6)nccc5[nH]4)n[nH]c3cn2)c1	305 nM	30 nM	50.8%	45 nM
CN(C)Cc1cncc(-c2cnc3[nH]nc(-c4cc5c(-c6ccccc6F)cncc5[nH]4)c3c2)c1	2490 nM	30 nM	60.9%	12 nM
CC(C)CC(=O)Nc1cncc(-c2ccc3[nH]nc(-c4cc5c(-c6ccncc6)nccc5[nH]4)c3c2)c1	> 10000 nM	30 nM	95.5%	25 nM
